Data as given in article PMC5007854, “β-Nitrostyrenes as Potential Anti-leishmanial Agents” (Frontiers in Microbiology, 2016).
Converted amounts (≈) assume the structure as drawn.

Legend:
[1] = test system: nitric oxide production in L. donovani infected peritoneal macrophages; assay: Nitrite (NO) production by Griess reaction in infected macrophages; assay type: cell-based, BALB/c mice; conditions: 48 h; for NO levels, in words: 0–25 μM; for NO production (nitrite): compound at 25 μM
Procedure: The supernatant from control L. donovani infected and treated macrophages were analyzed for nitrite content by the Griess reaction. In brief, equal volume of Griess reagent [1%sulphanilamide and 0.1% N-(1-naphthyl) ethylenediaminedihydrochloride in 5% phosphoric acid] was added to the culture supernatant and the plates were incubated for 10 min at room temperature using sodium nitrite as a standard. The absorbance at 550 nm was measured and the concentration of nitrite was calculated by a linear regression analyzing the standard curve generated with sodium nitrite (Varela et al., [2012]).

[2] = test system: murine macrophage cell line RAW264.7; assay: Ex vivo cytotoxicity assay (MTT); assay type: cell-based; conditions: increasing concentrations, 48 h, 37°C (Figure 6)
Procedure: Murine macrophage cell line, RAW264.7 was grown at 37°C in medium RPMI-1640 (pH 7.4, Sigma-Aldrich, St. Louis, MO, USA) supplemented with 10% heat-inactivated FBS for 48 to 72 h in a humidified atmosphere of 5% CO2 and sub-cultured in fresh RPMI-1640 medium at an average density 2 × 10^5 cells/ml (Islamuddin et al., [2014b]).
To evaluate the adverse toxicity of test compounds (9, 12, 14, and 18) on mammalian cells, the murine macrophage cell line (RAW264.7) cultured in RPMI 1640 medium were exposed to increasing concentrations of test compounds (5–50 μM) at 37°C, 5% CO2 for 48 h. AmB as the reference drug, and macrophages without any treatment were taken as control. The percentage of cell viability was evaluated by MTT (3-{4, 5-dimethylthiazol-2-yl}-2, 5-diphenyltetrazoliumbromide) assay (Das et al., [2008]).

[3] = test system: gram-positive bacteria (S. aureus and S. epidermidis); assay: Broth microdilution, pooled statement for gram-positive bacteria; assay type: cell-based; conditions: Staphylococcus aureus; range over both strains
From the text: (§1) One reference each of the following species was used for their in vitro susceptibility to β-nitrostyrene in this study: Staphylococcus aureus ATCC 29213, Staphylococcus epidermidis ATCC 14990, Escherichia coli ATCC 25922, Pseudomonas aeruginosa ATCC 27853, Candida albicans ATCC 90028, Candida glabrata ATCC 90030, Aspergillus fumigatus ATCC 16424 and Aspergillus niger ATCC 16404. These strains were procured from the American Type Culture Collection (ATCC, Manassas, VA, USA).
(§2) The antibacterial and antifungal activities of the β-nitrostyrenes were performed by broth microdilution methods as per the guidelines of Clinical and Laboratory Standard Institute (Wayne, [1998], [2008a],[b],[c]) by using Mueller-Hinton broth (MHB; Becton-Dickinson, Cockeysville, MD, USA) supplemented with calcium (25 mg/L) and magnesium (12.5 mg/L) for bacterial strains while as RPMI 1640 medium with L-glutamine and without sodium bicarbonate, buffered to pH 7.0 with 0.165 M 3-(N-morpholino) propanesulfonic acid (MOPS; both from Sigma) was used for fungal strains. […] The plates were read visually and the minimum inhibitory concentration (MIC) was defined as the lowest concentration of test sample that prevented visible growth with respect to the growth control.

[4] = test system: Candida species; assay: Broth microdilution, pooled statement for Candida species; assay type: cell-based; conditions: range over C. albicans and C. glabrata
From the text: as §1, §2

[5] = test system: Aspergillus species; assay: Broth microdilution, pooled statement for Aspergillus species; assay type: cell-based; conditions: range over A. fumigatus and A. niger
From the text: as §1, §2

Structure (SMILES) | NO levels, in words [1] | NO production (nitrite) [1] [µM] | Adverse toxicity on macrophage cell line RAW264.7 [2] | melting point [°C] | MIC [3] [µg/mL] | MIC [4] [µg/mL] | MIC [5] [µg/mL]
CC/C(=C\c1ccc([N+](=O)[O-])cc1)[N+](=O)[O-] [Compound 9, 1-nitro-4-((E)-2-nitrobut-1-enyl) benzene] | moderately increased | 8.05 | Absence of adverse toxicity | 104 to 106 | – | – | –
CC/C(=C\c1cccc([N+](=O)[O-])c1)[N+](=O)[O-] [Compound 12, 1-nitro-3-((E)-2-nitrobut-1-enyl) benzene] | moderately increased | 7.89 | Absence of adverse toxicity | 84 to 86 | 0.25 to 0.5 (≈ 1.13 to 2.25 µM) | 0.25 to 2 (≈ 1.13 to 9 µM) | 0.5 to 1 (≈ 2.25 to 4.5 µM)
COc1ccc(/C=C(\C)[N+](=O)[O-])cc1 [Compound 14, 1-methoxy-4-((E)-2-nitroprop-1-enyl) benzene] | mildly induced | 5.89 | Absence of adverse toxicity | – | – | – | –
CC/C(=C\c1ccc(O)cc1)[N+](=O)[O-] [Compound 18, 4-((E)-2-nitrobut-1-enyl) phenol] | – | 3.22 | Absence of adverse toxicity | – | – | – | –
